Results as given in patent publication US20260297080A1, “BICYCLIC COMPOUNDS AS CDK INHIBITORS” (BeOne Medicines I GmbH, priority 2022, published 2026).

How the values were obtained:
[1] = molecular target: CDK2/Cyclin E1 (Homo sapiens, UniProt P24941); experiment: CDK2/Cyclin E1 Biochemical Assay (TR-FRET), 0.060 mM ATP; settings: 0.15 μM Rb (Ser780)-biotin substrate, pH7.0, 60 min preincubation, 120 min reaction, room temperature
Summary of the method: (§1)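 Kinase preincubated with compound (0–10 μM) 60 min at room temperature, then reaction started with ATP and 0.15 μM Rb (Ser780)-biotin peptide and run 120 min in HEPES pH 7.0 buffer with 50 mM MgCl2. Phospho-Rb detected by Eu-cryptate anti-pRb(Ser780)/streptavidin-XL665 TR-FRET (665/620 nm ratio); IC50 from four-parameter logistic fit.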

[2] = molecular target: CDK1/Cyclin B1 (Homo sapiens, UniProt P06493); experiment: CDK1/Cyclin B1 Biochemical Assay (TR-FRET), 0.015 mM ATP; settings: 0.15 μM Rb (Ser780)-biotin substrate, pH7.0, 60 min preincubation, 120 min reaction, room temperature
Summary of the method: as §1

Chain of CDK1/Cyclin B1 (P06493 whole entry): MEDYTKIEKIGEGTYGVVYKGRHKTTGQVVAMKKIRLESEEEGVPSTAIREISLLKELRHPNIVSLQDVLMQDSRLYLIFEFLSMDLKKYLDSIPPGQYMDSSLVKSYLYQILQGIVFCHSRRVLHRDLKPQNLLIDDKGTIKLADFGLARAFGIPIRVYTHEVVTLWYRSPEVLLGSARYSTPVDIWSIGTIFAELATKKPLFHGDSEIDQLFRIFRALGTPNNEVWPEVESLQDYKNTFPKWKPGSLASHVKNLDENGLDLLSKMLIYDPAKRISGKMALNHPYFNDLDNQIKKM
Chain of CDK1/Cyclin B1 (P14635 whole entry partner): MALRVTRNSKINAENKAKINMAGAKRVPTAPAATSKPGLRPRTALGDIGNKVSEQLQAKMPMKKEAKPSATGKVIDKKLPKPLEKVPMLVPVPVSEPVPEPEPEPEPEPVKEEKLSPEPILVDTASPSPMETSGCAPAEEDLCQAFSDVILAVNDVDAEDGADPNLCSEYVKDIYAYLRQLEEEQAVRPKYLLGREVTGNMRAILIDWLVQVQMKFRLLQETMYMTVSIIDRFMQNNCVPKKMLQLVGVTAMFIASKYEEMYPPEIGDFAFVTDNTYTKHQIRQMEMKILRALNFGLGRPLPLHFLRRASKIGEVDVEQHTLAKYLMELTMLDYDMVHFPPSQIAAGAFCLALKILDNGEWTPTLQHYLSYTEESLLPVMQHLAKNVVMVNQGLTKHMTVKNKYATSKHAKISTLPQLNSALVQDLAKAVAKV

SMILES | IC50 [1] | IC50 [2]
CC(C)NC(=O)O[C@H]1CC[C@@H](c2cc(Nc3ccc4c(c3F)CN(C3CCN(C)C3=O)S4(=O)=O)n[nH]2)C1 (relative stereo) [Example 93, cis-3-(3-((4-fluoro-2-(1-methyl-2-oxopyrrolidin-3-yl)-1,1-dioxido-2,3-dihydrobenzo[d]isothiazol-5-yl)amino)-1H-pyrazol-5-yl)cyclopentyl isopropylcarbamate] | 6.3 nM | 531 nM
CC(C)NC(=O)O[C@H]1CC[C@@H](c2cc(Nc3ccc4c(c3F)CN(C3CN(C(c5ccccc5)c5ccccc5)C3)S4(=O)=O)n[nH]2)C1 (relative stereo) [Example 94, cis-3-(3-((2-(1-benzhydrylazetidin-3-yl)-4-fluoro-1,1-dioxido-2,3-dihydrobenzo[d]isothiazol-5-yl)amino)-1H-pyrazol-5-yl)cyclopentyl isopropylcarbamate] | 332 nM | > 10000 nM
CC(C)NC(=O)O[C@H]1CC[C@@H](c2cc(Nc3ccc4c(c3F)CN(CC3CC3)S4(=O)=O)n[nH]2)C1 (relative stereo) [Example 95, cis-3-(3-((2-(cyclopropylmethyl)-4-fluoro-1,1-dioxido-2,3-dihydrobenzo[d]isothiazol-5-yl)amino)-1H-pyrazol-5-yl)cyclopentyl isopropylcarbamate] | 15 nM | 972 nM
CC(C)NC(=O)O[C@H]1CC[C@@H](c2cc(Nc3ccc4c(c3F)CN(CC3CCC3)S4(=O)=O)n[nH]2)C1 (relative stereo) [Example 96, cis-3-(3-((2-(cyclobutylmethyl)-4-fluoro-1,1-dioxido-2,3-dihydrobenzo[d]isothiazol-5-yl)amino)-1H-pyrazol-5-yl)cyclopentyl isopropylcarbamate] | 36 nM | 2020 nM
CC(C)NC(=O)O[C@H]1CC[C@@H](c2cc(Nc3ccc4c(c3F)CN(CC3COC3)S4(=O)=O)n[nH]2)C1 (relative stereo) [Example 97, cis-3-(3-((4-fluoro-2-(oxetan-3-ylmethyl)-1,1-dioxido-2,3-dihydrobenzo[d]isothiazol-5-yl)amino)-1H-pyrazol-5-yl)cyclopentyl isopropylcarbamate] | 5.2 nM | 449 nM
CC(C)NC(=O)O[C@H]1CC[C@@H](c2cc(Nc3ccc4c(c3F)CN(C[C@@H](N)C(C)(C)C)S4(=O)=O)n[nH]2)C1 (relative stereo) [Example 98, cis-3-(3-((2-((S)-2-amino-3,3-dimethylbutyl)-4-fluoro-1,1-dioxido-2,3-dihydrobenzo[d]isothiazol-5-yl)amino)-1H-pyrazol-5-yl)cyclopentyl isopropylcarbamate] | 20 nM | 1910 nM
CC(C)NC(=O)O[C@H]1CC[C@@H](c2cc(Nc3ccc4c(c3F)CN(C[C@H](N)C(C)(C)C)S4(=O)=O)n[nH]2)C1 (relative stereo) [Example 99, cis-3-(3-((2-((R)-2-amino-3,3-dimethylbutyl)-4-fluoro-1,1-dioxido-2,3-dihydrobenzo[d]isothiazol-5-yl)amino)-1H-pyrazol-5-yl)cyclopentyl isopropylcarbamate] | 12 nM | 529 nM
CC(C)NC(=O)O[C@H]1CC[C@@H](c2cc(Nc3ccc4c(c3F)CN(C3CCN(C)C(=O)C3)S4(=O)=O)n[nH]2)C1 (relative stereo) [Example 100, cis-3-(3-((4-fluoro-2-(1-methyl-2-oxopiperidin-4-yl)-1,1-dioxido-2,3-dihydrobenzo[d]isothiazol-5-yl)amino)-1H-pyrazol-5-yl)cyclopentyl isopropylcarbamate] | 5.2 nM | 236 nM
CC(C)CN1Cc2c(ccc(Nc3cc([C@@H]4CC[C@H](OC(=O)NC(C)C)C4)[nH]n3)c2F)S1(=O)=O (relative stereo) [Example 101, cis-3-(3-((4-fluoro-2-isobutyl-1,1-dioxido-2,3-dihydrobenzo[d]isothiazol-5-yl)amino)-1H-pyrazol-5-yl)cyclopentyl isopropylcarbamate] | 10 nM | 1020 nM

The remaining lines, values ahead:

IC50 [1] | IC50 [2] | SMILES
5.7 nM | 244 nM | CC(C)NC(=O)O[C@H]1CC[C@@H](c2cc(Nc3ccc4c(c3F)CN(C(C)C3COC3)S4(=O)=O)n[nH]2)C1 (relative stereo) [Example 104, cis-3-(3-((4-fluoro-2-(1-(oxetan-3-yl)ethyl)-1,1-dioxido-2,3-dihydrobenzo[d]isothiazol-5-yl)amino)-1H-pyrazol-5-yl)cyclopentyl isopropylcarbamate]
8.4 nM | 689 nM | CC(C)NC(=O)O[C@H]1CC[C@@H](c2cc(Nc3ccc4c(c3F)CN(CC3CNC3)S4(=O)=O)n[nH]2)C1 (relative stereo) [Example 105, cis-3-(3-((2-(azetidin-3-ylmethyl)-4-fluoro-1,1-dioxido-2,3-dihydrobenzo[d]isothiazol-5-yl)amino)-1H-pyrazol-5-yl)cyclopentyl isopropylcarbamate]
6 nM | 631 nM | CC(C)NC(=O)O[C@H]1CC[C@@H](c2cc(Nc3ccc4c(c3F)CN(CC3CN(C)C3)S4(=O)=O)n[nH]2)C1 (relative stereo) [Example 106, cis-3-(3-((4-fluoro-2-((1-methylazetidin-3-yl)methyl)-1,1-dioxido-2,3-dihydrobenzo[d]isothiazol-5-yl)amino)-1H-pyrazol-5-yl)cyclopentyl isopropylcarbamate]
9.6 nM | 532 nM | CC(=O)N1CC(CN2Cc3c(ccc(Nc4cc([C@@H]5CC[C@H](OC(=O)NC(C)C)C5)[nH]n4)c3F)S2(=O)=O)C1 (relative stereo) [Example 107, cis-3-(3-((2-((1-acetylazetidin-3-yl)methyl)-4-fluoro-1,1-dioxido-2,3-dihydrobenzo[d]isothiazol-5-yl)amino)-1H-pyrazol-5-yl)cyclopentyl isopropylcarbamate]
37 nM | > 10000 nM | CC(C)NC(=O)O[C@H]1CC[C@@H](c2cc(Nc3ccc4c(c3F)CN(CC3CCCCC3)S4(=O)=O)n[nH]2)C1 (relative stereo) [Example 108, cis-3-(3-((2-(cyclohexylmethyl)-4-fluoro-1,1-dioxido-2,3-dihydrobenzo[d]isothiazol-5-yl)amino)-1H-pyrazol-5-yl)cyclopentyl isopropylcarbamate]
11 nM | 1190 nM | CC(C)NC(=O)O[C@H]1CC[C@@H](c2cc(Nc3ccc4c(c3F)CN(C3CCCC3O)S4(=O)=O)n[nH]2)C1 (relative stereo) [Example 109, cis-3-(3-((4-fluoro-2-(2-hydroxycyclopentyl)-1,1-dioxido-2,3-dihydrobenzo[d]isothiazol-5-yl)amino)-1H-pyrazol-5-yl)cyclopentyl isopropylcarbamate]
2.7 nM | 225 nM | CC(C)NC(=O)O[C@H]1CC[C@@H](c2cc(Nc3ccc4c(c3F)CN(CC3CCNC3=O)S4(=O)=O)n[nH]2)C1 (relative stereo) [Example 110, cis-3-(3-((4-fluoro-1,1-dioxido-2-((2-oxopyrrolidin-3-yl)methyl)-2,3-dihydrobenzo[d]isothiazol-5-yl)amino)-1H-pyrazol-5-yl)cyclopentyl isopropylcarbamate]
2.1 nM | 225 nM | CC(C)NC(=O)O[C@H]1CC[C@@H](c2cc(Nc3ccc4c(c3F)CN(CC3CCN(C)C3=O)S4(=O)=O)n[nH]2)C1 (relative stereo) [Example 111, cis-3-(3-((4-fluoro-2-((1-methyl-2-oxopyrrolidin-3-yl)methyl)-1,1-dioxido-2,3-dihydrobenzo[d]isothiazol-5-yl)amino)-1H-pyrazol-5-yl)cyclopentyl isopropylcarbamate]
6.3 nM | 458 nM | CC(C)NC(=O)O[C@H]1CC[C@@H](c2cc(Nc3ccc4c(c3F)CN(CCN3CCOCC3)S4(=O)=O)n[nH]2)C1 (relative stereo) [Example 112, cis-3-(3-((4-fluoro-2-(2-morpholinoethyl)-1,1-dioxido-2,3-dihydrobenzo[d]isothiazol-5-yl)amino)-1H-pyrazol-5-yl)cyclopentyl isopropylcarbamate]
3.6 nM | 288 nM | CC(C)NC(=O)O[C@H]1CC[C@@H](c2cc(Nc3ccc4c(c3F)CN(CCCO)S4(=O)=O)n[nH]2)C1 (relative stereo) [Example 113, cis-3-(3-((4-fluoro-2-(3-hydroxypropyl)-1,1-dioxido-2,3-dihydrobenzo[d]isothiazol-5-yl)amino)-1H-pyrazol-5-yl)cyclopentyl isopropylcarbamate]
9.6 nM | 596 nM | CC(C)NC(=O)O[C@H]1CC[C@@H](c2cc(Nc3ccc4c(c3F)CN(CCC3CCOCC3)S4(=O)=O)n[nH]2)C1 (relative stereo) [Example 114, cis-3-(3-((4-fluoro-1,1-dioxido-2-(2-(tetrahydro-2H-pyran-4-yl)ethyl)-2,3-dihydrobenzo[d]isothiazol-5-yl)amino)-1H-pyrazol-5-yl)cyclopentyl isopropylcarbamate]
6 nM | 407 nM | CC(C)NC(=O)O[C@H]1CC[C@@H](c2cc(Nc3ccc4c(c3F)CN(C(C)C3CCOC3)S4(=O)=O)n[nH]2)C1 (relative stereo) [Example 115, cis-3-(3-((4-fluoro-1,1-dioxido-2-(1-(tetrahydrofuran-3-yl)ethyl)-2,3-dihydrobenzo[d]isothiazol-5-yl)amino)-1H-pyrazol-5-yl)cyclopentyl isopropylcarbamate]
32 nM | 773 nM | C[C@@H](CO)NC(=O)O[C@H]1CC[C@@H](c2cc(Nc3ccc4c(c3F)CN(C3CC3)S4(=O)=O)n[nH]2)C1 (relative stereo) [Example 120, cis-3-(3-((2-cyclopropyl-4-fluoro-1,1-dioxido-2,3-dihydrobenzo[d]isothiazol-5-yl)amino)-1H-pyrazol-5-yl)cyclopentyl((S)-1-hydroxypropan-2-yl)carbamate]
